Laboratory results reported in ChEMBL document CHEMBL1649292, “In vivo investigations of selected diamidine compounds against Trypanosoma evansi using a mouse model” (2009).
Calls of active or inactive are those of the source. The rule behind the calls is not given here.

Experiments:
Trypanosoma evansi [1] = assay: Antimicrobial activity against Trypanosoma evansi STIB 806K infected in NMRI mouse assessed as host survival days at 0.5 mg/kg, ip administered 3 to 6 days after infection for 4 consecutive days; format: functional; settings: route intraperitoneal
Trypanosoma evansi [2] = assay: Antimicrobial activity against Trypanosoma evansi STIB 806K infected in NMRI mouse assessed as complete cure from microbial infection at 0.5 mg/kg, ip administered 3 to 6 days after infection for 4 consecutive days; format: functional, organism-based; set-up: dose 0.5 mg/kg
Trypanosoma evansi [3] = assay: Antimicrobial activity against Trypanosoma evansi STIB 806K infected in NMRI mouse assessed as complete cure from microbial infection at 2 mg/kg, ip administered 3 to 6 days after infection for 4 consecutive days; format: functional, organism-based; set-up: dose 2 mg/kg
Trypanosoma evansi [4] = assay: Antimicrobial activity against Trypanosoma evansi STIB 806K infected in NMRI mouse assessed as host survival days at 2 mg/kg, ip administered 3 to 6 days after infection for 4 consecutive days; format: functional; settings: route intraperitoneal
Trypanosoma evansi [5] = assay: Antimicrobial activity against Trypanosoma evansi STIB 806K infected in NMRI mouse assessed as host survival days at 0.125 mg/kg, ip administered 3 to 6 days after infection for 4 consecutive days; format: functional; settings: route intraperitoneal
Trypanosoma evansi [6] = assay: Antimicrobial activity against Trypanosoma evansi STIB 806K infected in NMRI mouse assessed as host survival days at 0.25 mg/kg, ip administered 3 to 6 days after infection for 4 consecutive days; format: functional; settings: route intraperitoneal
Trypanosoma evansi [7] = assay: Antimicrobial activity against Trypanosoma evansi STIB 806K infected in NMRI mouse assessed as complete cure from microbial infection at 0.2 mg/kg, ip administered 3 to 6 days after infection for 4 consecutive days; format: functional, organism-based; set-up: dose 0.2 mg/kg
Trypanosoma evansi [8] = assay: Antimicrobial activity against Trypanosoma evansi STIB 806K infected in NMRI mouse assessed as host survival days at 0.2 mg/kg, ip administered 3 to 6 days after infection for 4 consecutive days; format: functional; settings: route intraperitoneal
Trypanosoma evansi [9] = assay: Antimicrobial activity against Trypanosoma evansi STIB 806K infected in NMRI mouse assessed as host survival days at 1 mg/kg, ip administered 3 to 6 days after infection for 4 consecutive days; format: functional; settings: route intraperitoneal
Trypanosoma evansi [10] = assay: Antimicrobial activity against Trypanosoma evansi STIB 806K infected in NMRI mouse assessed as complete cure from microbial infection at 0.125 mg/kg, ip administered 3 to 6 days after infection for 4 consecutive days; format: functional, organism-based; set-up: dose 0.125 mg/kg
Trypanosoma evansi [11] = assay: Antimicrobial activity against Trypanosoma evansi STIB 806K infected in NMRI mouse assessed as complete cure from microbial infection at 0.0625 mg/kg, ip administered 3 to 6 days after infection for 4 consecutive days; format: functional, organism-based; set-up: dose 0.0625 mg/kg
Trypanosoma evansi [12] = assay: Antimicrobial activity against Trypanosoma evansi STIB 806K infected in NMRI mouse assessed as host survival days at 0.0625 mg/kg, ip administered 3 to 6 days after infection for 4 consecutive days; format: functional; settings: route intraperitoneal
Trypanosoma evansi [13] = assay: Antimicrobial activity against Trypanosoma evansi STIB 806K infected in NMRI mouse assessed as host survival days at 0.03125 mg/kg, ip administered 3 to 6 days after infection for 4 consecutive days; format: functional; settings: route intraperitoneal
Trypanosoma evansi [14] = assay: Antimicrobial activity against Trypanosoma evansi STIB 806K infected in NMRI mouse assessed as complete cure from microbial infection at 1 mg/kg, ip administered 3 to 6 days after infection for 4 consecutive days; format: functional, organism-based; set-up: dose 1 mg/kg
Trypanosoma evansi [15] = assay: Antimicrobial activity against Trypanosoma evansi STIB 806K infected in NMRI mouse assessed as complete cure from microbial infection at 0.25 mg/kg, ip administered 3 to 6 days after infection for 4 consecutive days; format: functional, organism-based; set-up: dose 0.25 mg/kg
Trypanosoma evansi [16] = assay: Antimicrobial activity against Trypanosoma evansi STIB 806K infected in NMRI mouse assessed as complete cure from microbial infection at 0.20 mg/kg, ip administered 3 to 6 days after infection for 4 consecutive days; format: functional, organism-based; set-up: dose 0.2 mg/kg
Trypanosoma evansi [17] = assay: Antimicrobial activity against Trypanosoma evansi STIB 806K infected in NMRI mouse assessed as host survival days at 0.20 mg/kg, ip administered 3 to 6 days after infection for 4 consecutive days; format: functional; settings: dose 0.2 mg/kg; route intraperitoneal

Structure (SMILES) | Survival (Trypanosoma evansi [1]) [days] | Activity (Trypanosoma evansi [2]) | Activity (Trypanosoma evansi [3]) | Survival (Trypanosoma evansi [4]) [days] | further results
Cc1cc(C2=NCCN2)ccc1-c1cc2cc(C3=NCCN3)ccc2[nH]1 | 7 | inactive | – | – | –
Cc1cc(C(=N)N)ccc1-c1cc2cc(C(=N)N)ccc2[nH]1 | 60 | Active | Active | 60 | Survival (Trypanosoma evansi [5]): 29 days; Survival (Trypanosoma evansi [6]): 51 days
N=C(N)c1ccc(-c2cc(-c3ccc(C(=N)N)cc3)on2)cc1 | 29 | – | Active | 60 | –
N=C(N)c1ccc(-c2ccc(-c3cn4cc(C(=N)N)ccc4n3)cc2)cc1 | – | – | – | 35 | Activity (Trypanosoma evansi [7]): inactive; Survival (Trypanosoma evansi [8]): 12 days
N=C(N)c1ccc(-c2ccc(-c3ccc4ccc(C(=N)N)cc4c3)o2)cc1 | 15 | inactive | – | – | –
Cc1cc(C(=N)N)ccc1-c1ccc(-c2nc3ccc(C(=N)N)cc3[nH]2)o1 | 16 | inactive | – | – | –
N=C(N)c1ccc(-c2ccc(-c3ccc(C(=N)N)o3)cn2)cc1 | – | – | – | 28 | –
Cn1c(-c2ccc(C(=N)N)nc2)ccc1-c1ccc(C(=N)N)nc1 | 34 | – | – | – | –
COc1cc(-c2ccc(C(=N)N)cc2)c(OC)cc1-c1ccc(C(=N)N)cc1 | 7 | inactive | – | – | –
Cn1c(-c2ccc(C(=N)N)cc2)ccc1-c1ccc(C(=N)N)cc1 | – | – | – | 49 | –
COc1cc(C(=N)N)ccc1-c1ccnc(-c2ccc(C(=N)N)cc2)n1 | 15 | inactive | – | – | –
N=C(N)c1ccc(-c2cccc(-c3ccc(C(=N)N)cc3)n2)cc1 | 16 | inactive | – | – | –
N=C(N)c1ccc(-c2ccc(-c3ccc(C(=N)N)cc3F)o2)c(F)c1 | 43 | – | – | – | –
CNC(=N)c1ccc(OCCCCCOc2ccc(C(=N)NC)cc2)cc1 | – | – | inactive | 29 | –
Cc1cc(C(=N)N)cn2cc(-c3ccc(-c4ccc(C(=N)N)cc4)o3)nc12 | – | – | inactive | 13 | –
CNC(=N)Nc1ccc(-c2ccc(-c3ccc(NC(=N)NC)cc3)cc2)cc1 | 13 | inactive | – | – | –
COc1cc(C(=N)N)ccc1OCCCOc1ccc(C(=N)N)cc1OC | – | – | – | 29 | –

Structure (SMILES) | Survival (Trypanosoma evansi [1]) [days] | Activity (Trypanosoma evansi [2]) | Activity (Trypanosoma evansi [3]) | Survival (Trypanosoma evansi [4]) [days] | further results
N=C(N)c1cccc(-c2ccc(-c3nc4cc(C(=N)N)ccc4[nH]3)cc2)c1 | 12 | inactive | – | – | –
N=C(N)c1ccc(-c2ccc(-c3ccc(C(=N)N)cc3O)o2)cc1 | 60 | Active | Active | 60 | Survival (Trypanosoma evansi [5]): 32 days; Survival (Trypanosoma evansi [6]): 38 days
N=C(N)c1ccc(/N=N/Nc2ccc(C(=N)N)cc2)cc1 [DIMINAZENE] | – | – | Active | 60 | Survival (Trypanosoma evansi [9]): 44 days; Activity (Trypanosoma evansi [7]): inactive; Survival (Trypanosoma evansi [8]): 9 days
N=C(N)c1ccc(-c2ccc(-c3ccc(C(=N)N)nc3)o2)cc1 | 60 | Active | Active | 60 | Survival (Trypanosoma evansi [5]): 46 days; Survival (Trypanosoma evansi [6]): 54 days
N=C(N)c1ccc(-c2csc(-c3ccc(C(=N)N)cc3)n2)cc1 | – | – | – | 53 | –
NCCS[As](SCCN)c1ccc(Nc2nc(N)nc(N)n2)cc1 | – | – | – | – | Activity (Trypanosoma evansi [10]): Active; Survival (Trypanosoma evansi [5]): 60 days; Activity (Trypanosoma evansi [11]): Active; Survival (Trypanosoma evansi [12]): 60 days; Survival (Trypanosoma evansi [13]): 37 days
N=C(N)c1ccc(-c2coc(-c3ccc(C(=N)N)cc3)c2)cc1 | 57 | – | Active | 60 | Survival (Trypanosoma evansi [6]): 41 days
Cc1cc(=N)c2ccc(Nc3cc(C)[n+](C)c(N)n3)cc2n1C.O=S(=O)([O-])O [QUINAPYRAMINE SULFATE] | 57 | – | – | – | Survival (Trypanosoma evansi [9]): 60 days; Activity (Trypanosoma evansi [14]): Active; Survival (Trypanosoma evansi [6]): 41 days
N=C(N)c1ccc(-c2ccc(-c3nc4cc(C(=N)N)ccc4o3)o2)cc1 | – | – | inactive | 23 | –
N=C(N)c1ccc(-c2ccc(-c3ccc(C(=N)N)nc3)o2)nc1 | 60 | Active | Active | 60 | Survival (Trypanosoma evansi [5]): 23 days; Survival (Trypanosoma evansi [6]): 46 days
c1cc(-c2cc3cc(C4=NCCN4)ccc3[nH]2)ccc1C1=NCCN1 | – | – | – | 39 | –
N=C(N)c1ccc(-c2cccc(-c3nc4ccc(C(=N)N)cc4[nH]3)c2)nc1 | – | – | inactive | 18 | –
N=C(N)c1ccc2nc(-c3ccc(-c4ccc(C(=N)N)c(F)c4)o3)[nH]c2c1 | 27 | inactive | – | – | –
N=C(N)c1ccc(-c2ccc(-c3ccc(C(=N)N)cc3)o2)cc1 [FURAMIDINE] | – | – | – | – | Survival (Trypanosoma evansi [5]): 55 days; Survival (Trypanosoma evansi [12]): 29 days; Survival (Trypanosoma evansi [6]): 60 days; Activity (Trypanosoma evansi [15]): Active; Activity (Trypanosoma evansi [16]): Active; Survival (Trypanosoma evansi [17]): 60 days
Cc1ccc(C(=O)Nc2ccc(S(=O)(=O)O)c3cc(S(=O)(=O)O)cc(S(=O)(=O)O)c23)cc1NC(=O)c1cccc(NC(=O)Nc2cccc(C(=O)Nc3cc(C(=O)Nc4ccc(S(=O)(=O)O)c5cc(S(=O)(=O)O)cc(S(=O)(=O)O)c45)ccc3C)c2)c1 [SURAMIN] | 51 | – | – | – | Survival (Trypanosoma evansi [9]): 60 days; Activity (Trypanosoma evansi [14]): Active; Survival (Trypanosoma evansi [6]): 11 days; Activity (Trypanosoma evansi [15]): inactive
N=C(N)c1ccc(-c2ccc(-c3ccc(C(=N)N)cn3)o2)cc1 | 60 | Active | – | – | Survival (Trypanosoma evansi [5]): 50 days; Survival (Trypanosoma evansi [6]): 60 days; Activity (Trypanosoma evansi [15]): Active
